Data reported in US10189842B2 (Agency for Science, Technology and Research, priority 2013, dated 2019).

test system: HEK293-STF3A cells; assay: STF3A assay (luciferase reporter); format: cell-based, Human; conditions: Homo sapiens, 24 h, 1 day of treatment
Procedure, shortened: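 HEK293 cells carrying the STF reporter and expressing Wnt3A, seeded 2×10^4 per well overnight, then treated 1 day with compound at final 50 μM to 1.5 nM. Luciferase activity read by luminescence after Steady-Glo reagent, 10 min at room temperature.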

First: O=C(CCC(=O)N1CCCn2nccc21)Nc1cc(-c2cccc(Cl)c2)no1 [Compound 133, N-(3-(3-chlorophenyl)isoxazol-5-yl)-4-(6,7-dihydropyrazolo[1,5-a]pyrimidin-4(5H)-yl)-4-oxobutanamide]
Second: O=C(CCC(=O)N1CCCn2nc(C(F)(F)F)cc21)Nc1cc(-c2cccc(Cl)c2)no1 [Compound 134, N-(3-(3-chlorophenyl)isoxazol-5-yl)-4-oxo-4-(2-(trifluoromethyl)-6,7-dihydropyrazolo[1,5-a]pyrimidin-4(5H)-yl)butanamide]
The IC50 of the first is higher: > 10 µM for the first, < 0.1 µM for the second. The second is the more potent here.

`Cc1cc2n(n1)CCCN2C(=O)CCC(=O)Nc1ccc(-c2cccc(N)c2)cc1` [Compound 70, N-(3′-amino-[1,1′-biphenyl]-4-yl)-4-(2-methyl-6,7-dihydropyrazolo[1,5-a]pyrimidin-4(5H)-yl)-4-oxobutanamide] and `CC(=O)Nc1cccc(-c2ccc(NC(=O)CCC(=O)N3CCCn4nc(C)cc43)cc2)c1` [Compound 74, N-(3′-acetamido-[1,1′-biphenyl]-4-yl)-4-(2-methyl-6,7-dihydropyrazolo[1,5-a]pyrimidin-4(5H)-yl)-4-oxobutanamide] cannot be ordered by IC50: < 0.1 µM for the first, < 5 µM for the second.

First: Cc1cc2n(n1)CCCN2C(=O)CCC(=O)Nc1ccc(C2CCN(C)CC2)cc1 [Compound 82, 4-(2-methyl-6,7-dihydropyrazolo[1,5-a]pyrimidin-4(5H)-yl)-N-(4-(1-methylpiperidin-4-yl)phenyl)-4-oxobutanamide]
Second: Cc1ccc(-c2ccc(NC(=O)CCC(=O)N3CCCn4nc(C)cc43)cc2)cc1 [Compound 60, 4-(2-methyl-6,7-dihydropyrazolo[1,5-a]pyrimidin-4(5H)-yl)-N-(4′-methyl-[1,1′-biphenyl]-4-yl)-4-oxobutanamide]
The IC50 of the first is higher: > 10 µM for the first, < 0.1 µM for the second. The second is the more potent here.

`Cc1ccc(-c2ccc(NC(=O)CCC(=O)N3CCCn4nc(C)cc43)nc2)cn1` [Compound 121, N-(6′-methyl-3,3′-bipyridin-6-yl)-4-(2-methyl-6,7-dihydropyrazolo[1,5-a]pyrimidin-4(5H)-yl)-4-oxobutanamide] and `Cc1cnc(-c2ccc(NC(=O)CCC(=O)N3CCCn4nc(C)cc43)nc2)cn1` [Compound 149, 4-(2-methyl-6,7-dihydropyrazolo[1,5-a]pyrimidin-4(5H)-yl)-N-(5-(5-methylpyrazin-2-yl)pyridin-2-yl)-4-oxobutanamide] cannot be ordered by IC50: < 0.1 µM for the first, < 0.1 µM for the second.

`Cc1cncc(-c2ccc(NC(=O)CCC(=O)N3CC(C)Cn4nc(C)cc43)nc2)c1` (stereo not shown) [Compound 142, 4-(2,6-dimethyl-6,7-dihydropyrazolo[1,5-a]pyrimidin-4(5H)-yl)-N-(5′-methyl-[3,3′-bipyridin]-6-yl)-4-oxobutanamide] and `Cc1cc2n(n1)CC(C)CN2C(=O)CCC(=O)Nc1ccc(-c2cncc(F)c2)cn1` (stereo not shown) [Compound 163, 4-(2,6-dimethyl-6,7-dihydropyrazolo[1,5-a]pyrimidin-4(5H)-yl)-N-(5′-fluoro-[3,3′-bipyridin]-6-yl)-4-oxobutanamide] cannot be ordered by IC50: < 0.1 µM for the first, < 0.1 µM for the second.

`Cc1cc2n(n1)CCCN2C(=O)CCC(=O)Nc1ccc(-c2cccc(Cl)c2)nc1` [Compound 83, N-(6-(3-chlorophenyl)pyridin-3-yl)-4-(2-methyl-6,7-dihydropyrazolo[1,5-a]pyrimidin-4(5H)-yl)-4-oxobutanamide] and `Cc1cc2n(n1)CCCN2C(=O)CCC(=O)Nc1ccc(-c2ccccn2)cc1` [Compound 34, 4-(2-methyl-6,7-dihydropyrazolo[1,5-a]pyrimidin-4(5H)-yl)-4-oxo-N-(4-(pyridin-2-yl)phenyl)butanamide] cannot be ordered by IC50: < 0.1 µM for the first, < 0.1 µM for the second.

Going from `Cc1cc2n(n1)CCCN2C(=O)C(C)CC(=O)Nc1cc(-c2cccc(Cl)c2)no1` (stereo not shown) [Compound 132, N-(3-(3-chlorophenyl)isoxazol-5-yl)-3-methyl-4-(2-methyl-6,7-dihydropyrazolo[1,5-a]pyrimidin-4(5H)-yl)-4-oxobutanamide] to `COc1cccc(-c2cc(NC(=O)CCC(=O)N3CCCn4nc(C)cc43)on2)c1` [Compound 10, N-[3-(3-methoxyphenyl)-1,2-oxazol-5-yl]-4-{2-methyl-5H,6H,7H-pyrazolo[1,5-a]pyrimidin-4-yl}-4-oxobutanamide], the IC50 falls from > 10 µM to < 5 µM.

`Cc1cc2n(n1)CCCN2C(=O)CCC(=O)Nc1ncc(-c2ccccc2)cn1` [Compound 46, 4-{2-methyl-5H,6H,7H-pyrazolo[1,5-a]pyrimidin-4-yl}-4-oxo-N-(5-phenylpyrimidin-2-yl)butanamide] and `Cc1cc2n(n1)CCCN2C(=O)CCC(=O)Nc1ccc(-c2cccc(F)c2)cn1` [Compound 89, N-(5-(3-fluorophenyl)pyridin-2-yl)-4-(2-methyl-6,7-dihydropyrazolo[1,5-a]pyrimidin-4(5H)-yl)-4-oxobutanamide] cannot be ordered by IC50: < 1 µM for the first, < 0.1 µM for the second.

`Cc1cncc(-c2ccc(NC(=O)CCC(=O)N3CC(C)Cn4nc(C)cc43)nc2)n1` (stereo not shown) [Compound 157, 4-(2,6-dimethyl-6,7-dihydropyrazolo[1,5-a]pyrimidin-4(5H)-yl)-N-(5-(6-methylpyrazin-2-yl)pyridin-2-yl)-4-oxobutanamide] and `Cc1cncc(-c2ccc(NC(=O)CCC(=O)N3CCCn4nc(C)cc43)nc2)n1` [Compound 128, 4-(2-methyl-6,7-dihydropyrazolo[1,5-a]pyrimidin-4(5H)-yl)-N-(5-(6-methylpyrazin-2-yl)pyridin-2-yl)-4-oxobutanamide] cannot be ordered by IC50: < 0.1 µM for the first, < 0.1 µM for the second.

`Cc1cncc(-c2ccc(NC(=O)C(C)CC(=O)N3CCCn4nc(C)cc43)cn2)c1` (stereo not shown) [Compound 150, 2-methyl-4-(2-methyl-6,7-dihydropyrazolo[1,5-a]pyrimidin-4(5H)-yl)-N-(5′-methyl-[2,3′-bipyridin]-5-yl)-4-oxobutanamide] and `Cc1cncc(-c2ccc(NC(=O)CCC(=O)N3CCCn4nc(C)cc43)nn2)c1` [Compound 104, 4-(2-methyl-6,7-dihydropyrazolo[1,5-a]pyrimidin-4(5H)-yl)-N-(6-(5-methylpyridin-3-yl)pyridazin-3-yl)-4-oxobutanamide] cannot be ordered by IC50: < 0.1 µM for the first, < 0.1 µM for the second.

`Cc1cc2n(n1)CCCN2C(=O)CCC(=O)Nc1ccc(-c2nccs2)cn1` [Compound 26, 4-(2-methyl-6,7-dihydropyrazolo[1,5-a]pyrimidin-4(5H)-yl)-4-oxo-N-(5-(thiazol-2-yl)pyridin-2-yl)butanamide] and `Cc1cc2n(n1)CCCN2C(=O)CCC(=O)Nc1ccc(-c2cccc(F)c2)nn1` [Compound 98, N-(6-(3-fluorophenyl)pyridazin-3-yl)-4-(2-methyl-6,7-dihydropyrazolo[1,5-a]pyrimidin-4(5H)-yl)-4-oxobutanamide] cannot be ordered by IC50: < 0.1 µM for the first, < 0.1 µM for the second.

`Cc1cc2n(n1)CC(C)CN2C(=O)CCC(=O)Nc1ccc(-c2cncc(F)c2)nc1` (stereo not shown) [Compound 162, 4-(2,6-dimethyl-6,7-dihydropyrazolo[1,5-a]pyrimidin-4(5H)-yl)-N-(5′-fluoro-[2,3′-bipyridin]-5-yl)-4-oxobutanamide] and `Cc1cc2n(n1)CCCN2C(=O)CCC(=O)Nc1ccc(-c2ccc(F)cc2)cc1` [Compound 66, N-(4′-fluorobiphenyl-4-yl)-4-(2-methyl-6,7-dihydropyrazolo[1,5-a]pyrimidin-4(5H)-yl)-4-oxobutanamide] cannot be ordered by IC50: < 0.1 µM for the first, < 1 µM for the second.

With `Cc1cc2n(n1)CCCN2C(=O)CCC(=O)Nc1cc(-c2ccncc2)no1` [Compound 20, 4-{2-methyl-5H,6H,7H-pyrazolo[1,5-a]pyrimidin-4-yl}-4-oxo-N-[3-(pyridin-4-yl)-1,2-oxazol-5-yl]butanamide] the IC50 was > 10 µM.
